Assay results as given in patent EP1056700B1, “MEDICINAL USES OF PHENYLALKANOLS AND DERIVATES” (ZingoTX Pty Ltd, priority 1997, dated 1999).
Entries after “also recorded” stand apart in the source; their conditions may differ.

Tests used:
DRG neuronal cells = experiment: Peak [Ca^2+]i transients in cultured dorsal root ganglion neurons (Fura-2); assay type: cell-based, rat; settings: for Number of capsaicin-sensitive cells responding / Peak [Ca^2+]i (Average ±SD): 2 mM Ca^2+
In short: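 Neonatal or adult Sprague-Dawley rat DRG neurons, Percoll-enriched and NGF-cultured, were loaded with 5 µM Fura-2 AM and imaged by 340/380 nm ratio at 20–23 °C in buffer with 2 mM Ca²⁺, pH 7.4. Compounds at 10 µM were perfused for 1 min, then washed out for 4 min. Viability was confirmed with 10 µM capsaicin and 50 mM KCl.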

left atrium rat = experiment: Cardiovascular and neuro-effector junction activities: left atrium, rat; settings: result in words with concentration
Description: (§1) The cardiotonic action of 1-(4-hydroxy-3-methoxyphenyl)dodecan-3-ol [3.93] was confirmed from independent studies, carried out at our request as part of our agreement with Johnson & Johnson Research Ltd (J&J), by Prof. James Angus from the University of Melbourne. […] A tachycardial effect of the substance on guinea pig atria was, however, observed at significant rate, 50-60% of isoprenaline Emax and the response was not α- or β-adrenoceptor mediated. […] Cardiovascular and neuro-effector junction activities of gingerol analogues

right atrium rat = experiment: Cardiovascular and neuro-effector junction activities: right atrium, rat; settings: result in words with concentration
Description: as §1

rat mesenteric artery = experiment: Vasodilation on rat mesenteric small arteries
Description: Small arteries (200-300 µm in diameter) isolated from rat mesentery were precontracted with endothelin prior to addition of the test substances and tested for relaxation.

right atrium-vagus rat = experiment: Cardiovascular and neuro-effector junction activities: right atrium-vagus, rat; settings: result in words with concentration
Description: as §1

SR Ca^2+-ATPase = target: T1, SR Ca^2+-ATPase (Canis lupus familiaris, UniProt O46674); experiment: Sarcoplasmic reticulum Ca^2+-ATPase assay; assay type: biochemical, dog; settings: for SR Ca^2+-ATPase Activity: 0 µM = 100, dog cardiac SR; for SR Ca^2+-ATPase ↑ increase or stimulation: @ 25 µM; for IC50: read-out: SR Ca^2+-ATPase IC50 = conc. for 50% inhibition
T1 construct: Effect of gingerols and their derivatives on the Ca^2+-ATPase activity of dog cardiac SR; from tissue; host or cells: dog heart (cardiac sarcoplasmic reticulum)
In short: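 Dog cardiac SR Ca^2+-ATPase activity was measured with 20 mM ATP solution over 30 min at 37°C. Released inorganic phosphate was developed colorimetrically, read at 655 nm and quantified against a Pi standard curve, with controls lacking ATP or calcium. Compounds from 10 mM DMSO stocks were tested in duplicate at ≤2.5% final DMSO.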

vas deferens rat = experiment: Cardiovascular and neuro-effector junction activities: vas deferens, rat
Description: as §1

guinea pig atria = experiment: Organ bath assay on isolated guinea pig atria (rate and force of contraction)
In short: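 Atria from 3-4-week-old male guinea pigs mounted in Krebs-Henseleit solution gassed with carbogen, under 1 g tension, stabilised 20 min. Rate and force of contraction recorded. Compounds in DMSO tested up to 50 µM maximum, final DMSO 2.5 %.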

Platelet rich plasma = experiment: Platelet aggregation: [^3H]-serotonin release from platelet rich plasma, arachidonic acid initiated; assay type: cell-based; settings: Homo sapiens, activation by EC50 concentration of arachidonic acid
Method: Blood was collected from healthy volunteers who had taken no medication in the previous two weeks. The anticoagulant used was 3.8 % trisodium citrate. Platelet rich plasma was prepared and incubated with [^3H]-serotonin. This was followed by addition of gingerol analogues. Platelet activation was initiated using the EC50 concentration for arachidonic acid. The percentage of [^3H]-serotonin release was measured using a liquid scintillation counter. Then, dose-response curves were established and IC50 values were obtained.

[1] = system: right atrium-vagus guinea pig; experiment: Cardiovascular and neuro-effector junction activities: right atrium-vagus, guinea pig; settings: result in words with concentration
Description: as §1

[2] = result in words, guinea pig atria

T1 sequence (O46674 whole entry): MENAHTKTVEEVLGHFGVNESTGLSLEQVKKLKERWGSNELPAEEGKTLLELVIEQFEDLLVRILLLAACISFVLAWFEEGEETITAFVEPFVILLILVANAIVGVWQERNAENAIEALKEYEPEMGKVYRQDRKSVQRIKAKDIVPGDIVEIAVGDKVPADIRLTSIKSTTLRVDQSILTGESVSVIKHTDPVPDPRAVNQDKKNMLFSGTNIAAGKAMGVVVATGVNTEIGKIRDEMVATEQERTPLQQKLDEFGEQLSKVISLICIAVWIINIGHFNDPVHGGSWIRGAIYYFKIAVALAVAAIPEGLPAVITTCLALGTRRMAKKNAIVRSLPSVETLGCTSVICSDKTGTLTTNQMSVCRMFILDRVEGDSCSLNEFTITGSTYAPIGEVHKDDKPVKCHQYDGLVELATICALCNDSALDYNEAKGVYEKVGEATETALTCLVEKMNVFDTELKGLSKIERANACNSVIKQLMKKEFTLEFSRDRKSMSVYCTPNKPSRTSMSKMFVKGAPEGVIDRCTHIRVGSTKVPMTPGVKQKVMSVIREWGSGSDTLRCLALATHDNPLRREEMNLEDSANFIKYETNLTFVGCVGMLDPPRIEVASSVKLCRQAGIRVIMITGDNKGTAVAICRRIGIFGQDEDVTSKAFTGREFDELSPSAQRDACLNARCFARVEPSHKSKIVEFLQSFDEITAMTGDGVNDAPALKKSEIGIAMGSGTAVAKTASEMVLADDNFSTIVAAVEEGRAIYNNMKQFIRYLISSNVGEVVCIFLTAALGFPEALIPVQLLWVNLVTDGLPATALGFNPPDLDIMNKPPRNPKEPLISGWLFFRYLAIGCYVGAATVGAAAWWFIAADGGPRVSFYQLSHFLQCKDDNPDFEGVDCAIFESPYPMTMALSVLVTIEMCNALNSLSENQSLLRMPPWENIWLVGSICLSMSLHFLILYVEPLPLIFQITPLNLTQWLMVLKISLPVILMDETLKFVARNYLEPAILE

CCCCCCCCCC(O)CCc1ccc(O)c(OC)c1 (centres unmarked) [1-(4-hydroxy-3-methoxyphenyl)dodecan-3-ol]
Number of capsaicin-sensitive cells responding (DRG neuronal cells; high responses, 10 µM): 5
Peak [Ca^2+]i (Average ±SD) (DRG neuronal cells; high responses, 10 µM): 661 ± 376 (high responses) nM
evoked [Ca^2+]i transients (DRG neuronal cells; in Ca^2+-free medium or on application of ruthenium red (1 µM)): abolished or greatly diminished
Number of capsaicin-sensitive cells responding (DRG neuronal cells; low responses, 10 µM): 10
Peak [Ca^2+]i (Average ±SD) (DRG neuronal cells; low responses, 10 µM): 187 ± 66 (low responses) nM
[Ca^2+]i in capsaicin-sensitive DRG cells (DRG neuronal cells; result in words): increased intracellular calcium
left atrium rat (left atrium rat): no change in force 10^-7 - 10^-5 M (n=2)
right atrium rat (right atrium rat): tachycardi a 3x10^-7 - 3x10^-6 M (with propranolo 1 present)
potency (EC50) for relaxation of the mesenteric artery versus inotropic effect in guinea pig atrium (rat mesenteric artery): 100 fold
EC50 (rat mesenteric artery; Rattus norvegicus, relaxation of small arteries (200-300 µm) precontracted with endothelin): 100 nM
relaxation of rat mesenteric artery (rat mesenteric artery; result in words): very potent; also recorded: both enantiomers showed similar potency
right atrium-vagus rat (right atrium-vagus rat): dramatic enhancement n=1 10^-6 - 10^-5 M
SR Ca^2+-ATPase Activity (SR Ca^2+-ATPase; 5 µM): 102
SR Ca^2+-ATPase Activity (SR Ca^2+-ATPase; 10 µM): 108
SR Ca^2+-ATPase Activity (SR Ca^2+-ATPase; 25 µM): 140
SR Ca^2+-ATPase Activity (SR Ca^2+-ATPase; 50 µM): 101
SR Ca^2+-ATPase Activity (SR Ca^2+-ATPase; 100 µM): 98
SR Ca^2+-ATPase Activity (SR Ca^2+-ATPase; 200 µM): 16
SR Ca^2+-ATPase ↑ increase or stimulation (SR Ca^2+-ATPase): ↑40% @ 25
IC50 (SR Ca^2+-ATPase): 50 to 100 µM
block of ATP or α1-receptors in vas deferens (vas deferens rat): Neither blocked
vas deferens rat ↓ (vas deferens rat; 10^-5 M (vehicle?)): ↓30% 10^-5 M (vehicle?)
FORCE OF CONTRACT^n ↑ increase (guinea pig atria; @ 10 (µM), guinea pig atria): ↑180% @ 10
HEART RATE ↑ increase (guinea pig atria; @ 10 (µM), guinea pig atria): ↑50% @ 10
increase on driven guinea pig left atria (guinea pig atria; at 1 µM, followed by arrhythmia): 50%
potency of one enantiomer versus the other in increasing the force of contraction (guinea pig atria; guinea pig atria): 100 fold
arrhythmia (guinea pig atria; guinea pig atria, after addition of a dose): followed by arrhythmia
IC50 (Platelet rich plasma): 58 ± 1.9 µM
right atrium-vagus guinea pig [1]: no enhancement of vagal slowing 10^-7 - 10^-5 M

CCCCCCCC(O)CC(=O)c1ccc(O)c(OC)c1 (centres unmarked) [3-hydroxy-1-(4-hydroxy-3-methoxyphenyl)decan-1-one]
Number of capsaicin-sensitive cells responding (DRG neuronal cells; 10 µM applied for 1 min): 0 out of 5
Peak [Ca^2+]i (Average ±SD) (DRG neuronal cells; 10 µM applied for 1 min): 0 nM
left atrium rat (left atrium rat): no change 10^-7 - 3x10^-5 M (sharp fall 10^-4 M)
right atrium rat (right atrium rat): no change basal rate 10^-7 - 10^-5 M
right atrium-vagus rat (right atrium-vagus rat): some enhanced slowing 10^-6 - 10^-5 M
SR Ca^2+-ATPase Activity (SR Ca^2+-ATPase; 1 µM): 104
SR Ca^2+-ATPase Activity (SR Ca^2+-ATPase; 5 µM): 152
SR Ca^2+-ATPase Activity (SR Ca^2+-ATPase; 10 µM): 174
SR Ca^2+-ATPase Activity (SR Ca^2+-ATPase; 25 µM): 195
SR Ca^2+-ATPase Activity (SR Ca^2+-ATPase; 50 µM): 180
SR Ca^2+-ATPase Activity (SR Ca^2+-ATPase; 100 µM): 222
SR Ca^2+-ATPase ↑ increase or stimulation (SR Ca^2+-ATPase; listed as 3-hydroxy-1-(4-hydroxy-3-methoxyphenyl) decan-1-one (3.92)): ↑95% @ 25
SR Ca^2+-ATPase ↑ increase or stimulation (SR Ca^2+-ATPase; listed as 3.92): 95%
stimulatory activity towards dog heart SR Ca^2+-ATPase (SR Ca^2+-ATPase; at 3 µM): 200%
IC50 (SR Ca^2+-ATPase): ~50 µM
block of ATP or α1-receptors in vas deferens (vas deferens rat): Neither blocked
vas deferens rat (vas deferens rat; result in words with concentration): no effect 10^-4 M
FORCE OF CONTRACT^n ↓ decrease (guinea pig atria; @ 10 (µM), guinea pig atria): ↓11% @ 10
HEART RATE ↓ decrease (guinea pig atria; @ 10 (µM), guinea pig atria): ↓5% @ 10
FORCE OF CONTRACT^n ↓ decrease (guinea pig atria; @ 30 (µM), guinea pig atria): ↓13% @ 30
increase on driven guinea pig left atria (guinea pig atria; at 10 µM): 50%
FORCE OF CONTRACT^n (guinea pig atria; [2]): negative inotropic activity
HEART RATE (guinea pig atria; [2]): negative chronotropic activity
right atrium-vagus guinea pig [1]: weak? enhanced slowing 10^-7 - 10^-6 M
